Test results from article PMC9043826, “Dalpulapans A–E from the roots of Dalbergia stipulacea” (RSC Advances, 2021).

Legend:
Assay type in all cases: cell-based
[1] = test system: HeLa (cervical cancer cells); experiment: MTT cytotoxicity assay against HeLa cells; conditions: Homo sapiens
Protocol: (§1) All isolated compounds, except 12, were evaluated for cytotoxicity against A549 (lung cancer cells), HeLa (cervical cancer cells) and Vero cells using the MTT assay.
(§2) MTT (3-(4,5-dimethylthiazol-2-yl)-2,5-diphenyltetrazolium bromide) assay was performed to evaluate the cytotoxic effect of the compounds. The procedure has been explained in a previous report.[14] In brief, all cells were cultured in RPMI 1640 medium supplemented with 10% fetal bovine serum, penicillin (100 U mL^−1) and streptomycin (100 μg mL^−1) (Gibco-BRL, USA) and incubated at 37 °C in a humidified atmosphere of 5% CO2. For preliminary testing, cells were exposed to the selected compounds at a concentration of 100 μg mL^−1 for 24, 48 and 72 hours. […] Control groups were treated with a solvent (a mixture of DMSO and ethanol; 1 : 1). After incubation, the medium was replaced with 110 μL of fresh medium containing MTT (0.5 mg mL^−1 in PBS) (Sigma Chemical Co., St. Louis, MO, USA) and incubated for 2 h. […] The absorbance of formazan was measured with a microplate reader (Bio-Rad Laboratories, USA) at the wavelength of 550 nm using 655 nm as a reference wavelength. […] The percentage of viable cells which corresponds to the production of formazan was calculated as previously described (Kumnerdkhonkaen et al. 2018).% Cell viability = [sample (A550 − A655)/control (A550 − A655)] × 100

[2] = test system: Vero cells (kidney of African green monkey cells; normal cells); experiment: MTT cytotoxicity assay against Vero (normal) cells; conditions: Chlorocebus sabaeus
Protocol: as §1, §2

[3] = test system: A549 (lung cancer cells); experiment: MTT cytotoxicity assay against A549 cells; conditions: Homo sapiens
Protocol: as §1, §2

CC(C)=CCC/C(C)=C/Cc1c(O)ccc2c1OC[C@H]1c3cc4c(cc3O[C@@H]21)OCO4 [Compound 6, R,R-velucarpin A] showed an IC50 [1] of 10.9 ± 0.42 µM, an IC50 [2] of 29.2 ± 1.16 µM and an IC50 [3] of 14.6 ± 1.31 µM.
